Assay results published in article PMC12914960, “Repurposing a detrimental antibody epitope as targeted therapeutics for sepsis and rheumatoid arthritis” (Military Medical Research, 2026).
Where a SMILES comes first, the peptide text is derived from it.

Tested on: CAIA in BALB/c mice
Assay: Arthritis severity score, collagen antibody-induced arthritis (CAIA)
Type: in vivo, mouse
Method: The CAIA model was established in BALB/c mice (8–10 weeks old) as described previously. On Day 0, the mice received an i.p. injection of 2 mg of anti-collagen II mAb cocktail (α-CII, Chondrex, Inc., Redmond, WA, USA). On Day 3, the mice received an i.p. injection of 30 µg of LPS [Escherichia coli (E. coli) O111:B4; Sigma-Aldrich, St. Louis, MO, USA] to activate inflammation and synchronize arthritis onset. The mice were randomized to the control vehicle (n = 5 or n = 7–10) or experimental groups (n = 5 or n = 7–10). Therapeutic agents [P2-1 peptide (1.0 or 2.0 mg/kg) or pCTS-L-neutralizing mAb2 (1.0, 2.0, or 4.0 mg/kg)] were administered i.p. daily, either prophylactically from–Day 2 or therapeutically from Day 6 post-α-CII challenge. Arthritis severity was scored daily via a clinical scoring system [0–4 per paw: 0 = normal; 1 = mild redness and swelling in a single joint type (ankle, wrist, or individual digit); 2 = moderate redness and swelling affecting two joint types; 3 = severe redness and swelling across all 3 joint types; 4 = maximal redness and swelling of the entire paw that obscured the joint definition].
On Day 0, the mice recei ved an i.p. injection of 2 mg of anti-collagen II m Ab cocktail (α-CII, Chondrex, Inc., Redmond, WA). […]

CCCC[C@H](NC(=O)[C@H](Cc1c[nH]cn1)NC(=O)[C@@H](NC(=O)[C@H](CCCCN)NC(=O)[C@@H](N)[C@@H](C)O)C(C)C)C(=O)N[C@@H](CCCCN)C(=O)N[C@@H](CO)C(=O)N[C@@H](Cc1ccccc1)C(=O)N[C@@H](CC(C)C)C(=O)N[C@@H](C)C(=O)N[C@@H](Cc1ccccc1)C(=O)N[C@@H](CCC(N)=O)C(=O)N[C@H](C(=O)N[C@@H](CCCCN)C(=O)N[C@H](C(=O)O)[C@@H](C)O)[C@@H](C)O [P2-1] (HELM PEPTIDE1{T.K.V.H.[Nle].K.S.F.L.A.F.Q.T.K.T}$$$$V2.0; N-terminus and C-terminus assumed)
arthritis severity, in words (P2-1 1.0 or 2.0 mg/kg i.p. daily from Day 6 (therapeutic)): dose-dependently and significantly attenuated CAIA-induced arthritis severity
arthritis severity, in words (P2-1 prophylactic, from Day -2, significant by Day 7): significantly reduced arthritis severity
